Assay results published in PubChem BioAssay (NCI).
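Each compound was tested at five concentrations against cells in 96-well plates for 48 hours. TGI denotes the concentration required for complete inhibition of growth.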

How the values were obtained:
Assay in all cases: inhibition of tumour cell growth, NCI panel, 48 h
786-0 renal = system: 786-0 renal
A498 renal = system: A498 renal
A549 NSCLC = system: A549 NSCLC
ACHN renal = system: ACHN renal
BT-549 breast = system: BT-549 breast
CCRF-CEM leukemia = system: CCRF-CEM leukemia
COLO 205 colon = system: COLO 205 colon
DU-145 prostate = system: DU-145 prostate
EKVX NSCLC = system: EKVX NSCLC
HCC-2998 colon = system: HCC-2998 colon
HCT-116 colon = system: HCT-116 colon
HCT-15 colon = system: HCT-15 colon
HL-60(TB) leukemia = system: HL-60(TB) leukemia
HOP-62 NSCLC = system: HOP-62 NSCLC
HS 578T breast = system: HS 578T breast
HT29 colon = system: HT29 colon
IGROV1 ovarian = system: IGROV1 ovarian
K-562 leukemia = system: K-562 leukemia
KM12 colon = system: KM12 colon
LOX IMVI melanoma = system: LOX IMVI melanoma
M14 melanoma = system: M14 melanoma
MALME-3M melanoma = system: MALME-3M melanoma
MCF7 breast = system: MCF7 breast
MDA-MB-231 breast = system: MDA-MB-231 breast
MDA-MB-435 = system: MDA-MB-435
MDA-N = system: MDA-N
MOLT-4 leukemia = system: MOLT-4 leukemia
NCI-H226 lung = system: NCI-H226 lung
NCI-H23 lung = system: NCI-H23 lung
NCI-H460 lung = system: NCI-H460 lung
NCI-H522 lung = system: NCI-H522 lung
NCI/ADR-RES ovarian = system: NCI/ADR-RES ovarian
OVCAR-4 ovarian = system: OVCAR-4 ovarian
OVCAR-5 ovarian = system: OVCAR-5 ovarian
OVCAR-8 ovarian = system: OVCAR-8 ovarian
PC-3 prostate = system: PC-3 prostate
RXF 393 renal = system: RXF 393 renal
SF-268 CNS = system: SF-268 CNS
SF-295 CNS = system: SF-295 CNS
SF-539 CNS = system: SF-539 CNS
SK-MEL-2 melanoma = system: SK-MEL-2 melanoma
SK-MEL-28 melanoma = system: SK-MEL-28 melanoma
SK-MEL-5 melanoma = system: SK-MEL-5 melanoma
SK-OV-3 ovarian = system: SK-OV-3 ovarian
SN12C renal = system: SN12C renal
SNB-19 CNS = system: SNB-19 CNS
SNB-75 CNS = system: SNB-75 CNS
SR leukemia = system: SR leukemia
SW-620 colon = system: SW-620 colon
T-47D breast = system: T-47D breast
TK-10 renal = system: TK-10 renal
U251 CNS = system: U251 CNS
UACC-257 melanoma = system: UACC-257 melanoma
UACC-62 melanoma = system: UACC-62 melanoma
UO-31 renal = system: UO-31 renal
CAKI-1 renal = system: CAKI-1 renal
HOP-92 NSCLC = system: HOP-92 NSCLC
OVCAR-3 ovarian = system: OVCAR-3 ovarian
RPMI-8226 leukemia = system: RPMI-8226 leukemia

Structure (SMILES): CCNC(=S)N/N=C/c1cc([N+](=O)[O-])ccc1O
- TGI (786-0 renal): > 100 µM
- TGI (A498 renal): 69.1 µM
- TGI (A549 NSCLC): > 100 µM
- TGI (ACHN renal): > 100 µM
- TGI (BT-549 breast): > 100 µM
- TGI (CCRF-CEM leukemia): 38.6 µM
- TGI (COLO 205 colon): > 100 µM
- TGI (DU-145 prostate): > 100 µM
- TGI (EKVX NSCLC): > 100 µM
- TGI (HCC-2998 colon): > 100 µM
- TGI (HCT-116 colon): 40.8 µM
- TGI (HCT-15 colon): > 100 µM
- TGI (HL-60(TB) leukemia): 40.8 µM
- TGI (HOP-62 NSCLC): > 100 µM
- TGI (HS 578T breast): > 100 µM
- TGI (HT29 colon): > 100 µM
- TGI (IGROV1 ovarian): > 100 µM
- TGI (K-562 leukemia): > 100 µM
- TGI (KM12 colon): > 100 µM
- TGI (LOX IMVI melanoma): > 100 µM
- TGI (M14 melanoma): > 100 µM
- TGI (MALME-3M melanoma): > 100 µM
- TGI (MCF7 breast): 4.4 µM
- TGI (MDA-MB-231 breast): > 100 µM
- TGI (MDA-MB-435): > 100 µM
- TGI (MDA-N): > 100 µM
- TGI (MOLT-4 leukemia): 63.7 µM
- TGI (NCI-H226 lung): > 100 µM
- TGI (NCI-H23 lung): > 100 µM
- TGI (NCI-H460 lung): > 100 µM
- TGI (NCI-H522 lung): 59.3 µM
- TGI (NCI/ADR-RES ovarian): 77.3 µM
- TGI (OVCAR-4 ovarian): 72.8 µM
- TGI (OVCAR-5 ovarian): > 100 µM
- TGI (OVCAR-8 ovarian): > 100 µM
- TGI (PC-3 prostate): > 100 µM
- TGI (RXF 393 renal): > 100 µM
- TGI (SF-268 CNS): > 100 µM
- TGI (SF-295 CNS): > 100 µM
- TGI (SF-539 CNS): > 100 µM
- TGI (SK-MEL-2 melanoma): > 100 µM
- TGI (SK-MEL-28 melanoma): > 100 µM
- TGI (SK-MEL-5 melanoma): > 100 µM
- TGI (SK-OV-3 ovarian): > 100 µM
- TGI (SN12C renal): > 100 µM
- TGI (SNB-19 CNS): > 100 µM
- TGI (SNB-75 CNS): > 100 µM
- TGI (SR leukemia): 59.3 µM
- TGI (SW-620 colon): > 100 µM
- TGI (T-47D breast): > 100 µM
- TGI (TK-10 renal): 79.8 µM
- TGI (U251 CNS): > 100 µM
- TGI (UACC-257 melanoma): > 100 µM
- TGI (UACC-62 melanoma): 93.9 µM
- TGI (UO-31 renal): > 100 µM

Structure (SMILES): COC(=O)[C@H]1CO[C@@H](C(C)(C)C)N1C(=O)N1C=CC(=O)C[C@@H]1C
- TGI (786-0 renal): > 100 µM
- TGI (A498 renal): > 100 µM
- TGI (A549 NSCLC): > 100 µM
- TGI (ACHN renal): > 100 µM
- TGI (BT-549 breast): > 100 µM
- TGI (CAKI-1 renal): > 100 µM
- TGI (CCRF-CEM leukemia): > 100 µM
- TGI (COLO 205 colon): > 100 µM
- TGI (DU-145 prostate): > 100 µM
- TGI (EKVX NSCLC): > 100 µM
- TGI (HCT-116 colon): > 100 µM
- TGI (HL-60(TB) leukemia): > 100 µM
- TGI (HOP-62 NSCLC): > 100 µM
- TGI (HOP-92 NSCLC): > 100 µM
- TGI (HS 578T breast): > 100 µM
- TGI (HT29 colon): > 100 µM
- TGI (IGROV1 ovarian): > 100 µM
- TGI (K-562 leukemia): > 100 µM
- TGI (KM12 colon): > 100 µM
- TGI (LOX IMVI melanoma): > 100 µM
- TGI (MALME-3M melanoma): > 100 µM
- TGI (MCF7 breast): > 100 µM
- TGI (MDA-MB-231 breast): > 100 µM
- TGI (MDA-MB-435): > 100 µM
- TGI (MDA-N): > 100 µM
- TGI (NCI-H226 lung): > 100 µM
- TGI (NCI-H23 lung): > 100 µM
- TGI (NCI-H522 lung): > 100 µM
- TGI (NCI/ADR-RES ovarian): > 100 µM
- TGI (OVCAR-3 ovarian): > 100 µM
- TGI (OVCAR-5 ovarian): > 100 µM
- TGI (OVCAR-8 ovarian): > 100 µM
- TGI (PC-3 prostate): > 100 µM
- TGI (RPMI-8226 leukemia): > 100 µM
- TGI (RXF 393 renal): > 100 µM
- TGI (SF-268 CNS): > 100 µM
- TGI (SF-295 CNS): > 100 µM
- TGI (SK-MEL-2 melanoma): > 100 µM
- TGI (SK-MEL-28 melanoma): > 100 µM
- TGI (SK-MEL-5 melanoma): > 100 µM
- TGI (SK-OV-3 ovarian): > 100 µM
- TGI (SN12C renal): > 100 µM
- TGI (SNB-75 CNS): > 100 µM
- TGI (SR leukemia): > 100 µM
- TGI (SW-620 colon): > 100 µM
- TGI (T-47D breast): > 100 µM
- TGI (TK-10 renal): > 100 µM
- TGI (U251 CNS): > 100 µM
- TGI (UACC-257 melanoma): > 100 µM
- TGI (UACC-62 melanoma): > 100 µM
- TGI (UO-31 renal): > 100 µM

Structure (SMILES): Oc1cccc2c(Cl)ccnc12
- TGI (786-0 renal): > 100 µM
- TGI (A498 renal): > 43.5 µM
- TGI (A549 NSCLC): > 100 µM
- TGI (ACHN renal): > 47.7 µM
- TGI (BT-549 breast): > 100 µM
- TGI (CAKI-1 renal): > 58.5 µM
- TGI (CCRF-CEM leukemia): 2.52 µM
- TGI (COLO 205 colon): 32.6 µM
- TGI (DU-145 prostate): > 100 µM
- TGI (EKVX NSCLC): > 30.8 µM
- TGI (HCC-2998 colon): 14.9 µM
- TGI (HCT-116 colon): 15.2 µM
- TGI (HCT-15 colon): 29.7 µM
- TGI (HL-60(TB) leukemia): 3.36 µM
- TGI (HOP-62 NSCLC): > 100 µM
- TGI (HOP-92 NSCLC): 21.5 µM
- TGI (HS 578T breast): > 73.9 µM
- TGI (HT29 colon): 33.6 µM
- TGI (IGROV1 ovarian): > 29.7 µM
- TGI (K-562 leukemia): 5.96 µM
- TGI (KM12 colon): 82.3 µM
- TGI (LOX IMVI melanoma): 19.6 µM
- TGI (M14 melanoma): 13.4 µM
- TGI (MALME-3M melanoma): 25.4 µM
- TGI (MCF7 breast): > 100 µM
- TGI (MDA-MB-231 breast): 97.5 µM
- TGI (MDA-MB-435): > 78.5 µM
- TGI (MDA-N): > 100 µM
- TGI (MOLT-4 leukemia): 4.19 µM
- TGI (NCI-H226 lung): > 100 µM
- TGI (NCI-H23 lung): 26.2 µM
- TGI (NCI-H460 lung): > 100 µM
- TGI (NCI-H522 lung): 2.44 µM
- TGI (NCI/ADR-RES ovarian): > 100 µM
- TGI (OVCAR-3 ovarian): 3.19 µM
- TGI (OVCAR-4 ovarian): 7.45 µM
- TGI (OVCAR-5 ovarian): > 50.4 µM
- TGI (OVCAR-8 ovarian): > 100 µM
- TGI (PC-3 prostate): > 100 µM
- TGI (RXF 393 renal): 7.95 µM
- TGI (SF-268 CNS): > 39.3 µM
- TGI (SF-295 CNS): > 100 µM
- TGI (SF-539 CNS): > 60.5 µM
- TGI (SK-MEL-28 melanoma): 35.9 µM
- TGI (SK-MEL-5 melanoma): 14.8 µM
- TGI (SK-OV-3 ovarian): 96.9 µM
- TGI (SN12C renal): > 55.2 µM
- TGI (SNB-19 CNS): > 100 µM
- TGI (SNB-75 CNS): > 100 µM
- TGI (SR leukemia): 9.57 µM
- TGI (SW-620 colon): 29.3 µM
- TGI (T-47D breast): 48.2 µM
- TGI (TK-10 renal): > 100 µM
- TGI (U251 CNS): 22 µM
- TGI (UACC-257 melanoma): 12.1 µM
- TGI (UACC-62 melanoma): 8.45 µM
- TGI (UO-31 renal): > 95.3 µM
